Tests used:
guinea pig skin = test: Cutaneous irritation (Draize, Primary Irritation Index) after SADBE dermal patch in guinea pig; assay type: in vivo; details: for time to return to non-irritating levels post-dermal-application / time of peak cutaneous irritation: re-challenge
Method: Thirty (30) guinea pigs (15 female and 15 male) were utilized for this nonGLP study. Prior to and post dosing (dermal patches loaded with 20 microliters of 2, 6, or 18% SADBE drug solution) body weights, group food consumption, and Draize scoring for erythema, eschar formation, and edema at the dose site were be recorded. The dermal patch loaded with SADBE was applied to animals, and left in place for ˜12 hours plus/minus 1 hour. Following the ˜12 hour dosing period, patch sites was assessed by Draize scoring. […] After the 28 days assessment period, re challenge was performed, a second patch (not treated during the induction phase) was applied and assessed by Draize scoring.
Cutaneous irritation at the test site was observed and scored each day of the study by the Draize Scale for both Erythema & Eschar and Edema. The scale for each is in Tables 9 and 10, each on a 0-4 scale. The cumulative Erythema & Eschar and Edema score was the Primary Irritation Index score, which would therefore be on a 0-8 scale.
To assess the effect of the test article, SADBE (2%, 6%, and 18% in DMSO), on cutaneous skin irritation potential and sensitivity in guinea pig, Draize scoring system was used for dose site evaluation for erythema and eschar responses and for Edema. The test article (20 ul) was loaded on a dermal patch and applied to shaved guinea pig skin for 12 hrs (induction phase). The first dose site evaluation was performed for 30 days post application. A second dose was applied and dose site evaluation was also performed for approximately 5 weeks (challenge phase).
The Primary Irritation Index (pII) for each test article dose was calculated to assess the irritation potential. The Primary Irritation Index (pII) is the mean of the primary irritation score. The primary irritation score is the sum of the erythema/eschar score and the edema score, resulting in a maximal irritation potential of 8. The daily primary irritation index (pII) for each test article dose over the course of the study was calculated (FIG. 4). The pII is used to categorize the test article treatments as negligible to not irritating (0-0.9), slight (0.9-1.9), moderate (2-4.9) or severe (5-8) irritation potential. […] (FIG. 4.)

[1] = HPLC analysis of test article vials and patch controls in air (guinea pig study); assay type: physicochemical
Method: Squaric acid dibutyl ester (SADBE) at 2% (w/v) concentration in dimethylsulfoxide (DMSO) was added to a skin patch for dermal dosing of SADBE to test for a delayed-type hypersensitivity response or other skin irritation. In the laboratories of Squarex HPLC analysis was conducted to analyze for SADBE content, for analysis of the dose formulation prepared by APS and to determine stability of the test article in the dermal patches during the application time and to test for residual SADBE in the dermal patches after 12 hours applied to the animals.
The skin patches consisted of a polymer backing layer similar to 3M 9916 polyester nonwoven backing layer with adhesive, 3M 9733 polyester film laminate barrier layer, and Precision Fabrics Group 0700-00010 polyester gauze layer. The gauze was heat sealed to the barrier layer. The gauze patch area was 1.53 cm^2.
The tubes of DMSO with patches were transported to the Squarex laboratory, shaken at 200 rpm for 1 hour or more, and then the DMSO from each tube was placed in an injection vial and analyzed for SADBE content by HPLC on a C18 column with the program SADBE3-50 ul. SADBE elutes in this program at about 24.0 minutes and absorbs at 255 nm, so the area of the 24.0 min peak at 255 nm was used to quantify SADBE. The SADBE degradation product squaric acid monobutyl ester (SAMBE) was also quantified by 255 nm area under the curve at the elution time of 12.7 minutes.
The test article vials of 2%, 6%, and 18% SADBE dissolved in DMSO complied with specifications and had the predicted concentrations of SADBE at 24 hours after preparation.
The results indicated the SADBE was stable for more than 12 hours in the patches when not exposed to animal skin. There was no apparent loss of SADBE or conversion of SADBE to SAMBE.

[2] = 2% patch control, 20 ul, >12 hours in air
[3] = 2% vial, SADBE in DMSO, 24 hours after preparation
[4] = 6% patch control, 20 ul, >12 hours in air
[5] = 6% vial, SADBE in DMSO, 24 hours after preparation
[6] = 18% patch control, 20 ul, >12 hours in air
[7] = 18% vial, SADBE in DMSO, 24 hours after preparation

SMILES: CCCCOc1c(OCCCC)c(=O)c1=O [SADBE, squaric acid dibutyl ester]
- irritation category by Primary Irritation Index (pII) (guinea pig skin; 2% SADBE, 20 ul patch, 12 h, first dose): slightly irritating
- duration of slight cutaneous irritation (guinea pig skin; 2% SADBE, induction): > 17 days
- time to return to non-irritating levels post-dermal-application (guinea pig skin; 2% SADBE): ~9 days
- irritation category by Primary Irritation Index (pII) (guinea pig skin; 2% SADBE, re-challenge (second dose)): moderately irritating
- duration of slight to moderate cutaneous irritation (guinea pig skin; 2% SADBE, re-challenge at naive site): ~5 days
- irritation category by Primary Irritation Index (pII) (guinea pig skin; 6% SADBE, 20 ul patch, 12 h, first dose): moderately irritating
- duration of moderate cutaneous irritation (guinea pig skin; 6% SADBE, induction): ~18 days
- time to return to slight irritation and not irritating levels (guinea pig skin; 6% SADBE, induction): ~23 days
- time of peak cutaneous irritation (guinea pig skin; 6% SADBE): ~5 days
- time to return to non-irritating levels post-dermal-application (guinea pig skin; 6% SADBE): ~14 days
- irritation category by Primary Irritation Index (pII) (guinea pig skin; 6% SADBE, re-challenge (second dose)): moderately irritating
- irritation category by Primary Irritation Index (pII) (guinea pig skin; 18% SADBE, 20 ul patch, 12 h, first dose): severely irritating
- duration of moderate to severe cutaneous irritation (guinea pig skin; 18% SADBE, induction): ~21 days
- time to return to slight irritation and not irritating levels post-dosing (guinea pig skin; 18% SADBE, induction): ~27 days
- time of peak cutaneous irritation (guinea pig skin; 18% SADBE): ~8 days
- time to return to non-irritating levels post-dermal-application (guinea pig skin; 18% SADBE): ~19 days
- irritation category by Primary Irritation Index (pII) (guinea pig skin; 18% SADBE, re-challenge (second dose)): moderately irritating
- % of expected SADBE [1, 2]: 106.0%
- SAMBE as percent of SADBE [1, 2]: 0.95%
- % of expected SADBE [1, 3]: 97.5%
- SAMBE as percent of SADBE [1, 3]: 0.84%
- % of expected SADBE [1, 4]: 94.5%
- SAMBE as percent of SADBE [1, 4]: 1.05%
- % of expected SADBE [1, 5]: 102.9%
- SAMBE as percent of SADBE [1, 5]: 0.83%
- % of expected SADBE [1, 6]: 100.3%
- SAMBE as percent of SADBE [1, 6]: 1.01%
- % of expected SADBE [1, 7]: 97.7%
- SAMBE as percent of SADBE [1, 7]: 0.91%
- time SADBE was stable in the patches ([1]; patches not exposed to animal skin, no apparent loss or conversion to SAMBE): more than 12 hours
